Source: patent US20240270762A1, “PENICILLIN-BINDING PROTEIN INHIBITORS” (priority 2021, published 2024)
≈ marks a conversion by molar mass, not a printed value.

Tests used:
P. aeruginosa ATCC 27853 = test: microbe, parasite or virus in culture; type: cell-based; conditions: Pseudomonas aeruginosa, ATCC27853, read-out: MIC P. aeruginosa ATCC 27853
N. gonorrhoeae FA1090 = test: Liquid broth MIC in Fastidious broth; conditions: Neisseria gonorrhoeae, FA1090, read-out: Minimum Inhibitory Concentration (MIC), N. gonorrhoeae FA 1090
N. gonorrhoeae WHO Z = test: Liquid broth MIC in Fastidious broth; conditions: Neisseria gonorrhoeae, read-out: Minimum Inhibitory Concentration (MIC), N. gonorrhoeae WHO Z
N. gonorrhoeae CDC-0197 = test: Liquid broth MIC in Fastidious broth; conditions: Neisseria gonorrhoeae, CDC0197, read-out: Minimum Inhibitory Concentration (MIC), N. gonorrhoeae CDC-0197
Procedure: ATCC 49226, FA1090, MS11, WHO G, WHO L, and WHO M produce wild type or wild-type like PBP2. WHO K, WHO X, WHO Z, WHO Q, and CDC-0197 produce mosaic PBP2. Liquid broth-based assays were used for antibacterial testing of PBP inhibitors in Neisseria gonorrhoeae. Briefly, cryo-preserved bacterial cultures of clinical strains were streaked for isolation on Chocolate Agar (72 g/L (2×) GC Agar Base (BD #228950) and 2% (2×) Hemoglobin was autoclaved at 121° C. for 20 minutes to sterilize. Once cooled to ˜50° C. the 2×GC Agar Base and 2× Hemoglobin solutions are combined and 1% IsoVitaleX Enrichment (BD #211876) was added to the solution). Strains were incubated at 36° C. and 5% CO2 to allow growth of colonies, 24 hours before inoculum preparation. 2-fold serial dilutions of test compounds were conducted in a 96 well plate with a final volume of 75 μL per well at 2-fold the final desired concentration in Fastidious broth (Remel #R07664). For preparation of assay inoculum, a direct suspension was prepared by aseptically swabbing 10-15 colonies from agar plates into culture tubes containing 2 mL of fresh sterile saline. After the dilution plates were set up, direct suspensions were then diluted in a cuvette containing sterile saline and the optical density was measured at 600 nm. Inocula were diluted such that 75 μL of this culture in Fastidious broth results in a starting bacterial concentration of 5×10^5 CFU/mL when added to the dilution plates. The plates were incubated for ˜24 hours at 36° C. and 5% CO2.

N. gonorrhoeae WHO K = test: Liquid broth MIC in Fastidious broth; conditions: Neisseria gonorrhoeae, read-out: Minimum Inhibitory Concentration (MIC), N. gonorrhoeae WHO K
A. baumannii ATCC 19606 = test: microbe, parasite or virus in culture; type: cell-based; conditions: Acinetobacter baumannii, ATCC19606, read-out: MIC, A. baumannii ATCC 19606
N. gonorrhoeae WHO Q = test: Liquid broth MIC in Fastidious broth; conditions: Neisseria gonorrhoeae, read-out: Minimum Inhibitory Concentration (MIC), N. gonorrhoeae WHO Q

Row | Structure (SMILES) | MIC (P. aeruginosa ATCC 27853) | MIC (N. gonorrhoeae FA1090) | MIC (N. gonorrhoeae WHO Z) | MIC (N. gonorrhoeae CDC-0197) | MIC (N. gonorrhoeae WHO K) | MIC (A. baumannii ATCC 19606) | MIC (N. gonorrhoeae WHO Q)
1 | O=C(O)c1cccc2c1OB(O)[C@@H](NC(=O)C(NC(=O)N1CCCNC1=O)c1ccc(P(=O)(O)O)cc1)C2 (stereo partly drawn) [Example 56, (3R)-2-hydroxy-3-(2-(2-oxohexahydropyrimidine-1-carboxamido)-2-(4-phosphonophenyl)acetamido)-3,4-dihydro-2H-benzo[e][1,2]oxaborinine-8-carboxylic acid] | > 128 µg/mL | < 1 µg/mL | 4 to 8 µg/mL (≈ 7.32 to 14.6 µM) | 4 to 8 µg/mL (≈ 7.32 to 14.6 µM) | 16 to 32 µg/mL (≈ 29.3 to 58.6 µM) | > 128 µg/mL | 4 to 8 µg/mL (≈ 7.32 to 14.6 µM)
2 | O=C(O)c1cccc2c1OB(O)[C@@H](NC(=O)[C@H](NC(=O)c1cccn(C(F)F)c1=O)c1ccc(P(=O)(O)O)cc1)C2 (single isomer, unassigned) [Example 191] | > 128 µg/mL | < 1 µg/mL | 1 to 2 µg/mL (≈ 1.69 to 3.38 µM) | 1 to 2 µg/mL (≈ 1.69 to 3.38 µM) | 4 to 8 µg/mL (≈ 6.77 to 13.5 µM) | > 128 µg/mL | 1 to 2 µg/mL (≈ 1.69 to 3.38 µM)
3 | CC(=O)N1CCC[C@H]1C(=O)NC(C(=O)N[C@H]1Cc2cccc(C(=O)O)c2OB1O)c1ccc(P(=O)(O)O)cc1 (stereo partly drawn) [Example 65, (3R)-3-(2-((S)-1-acetylpyrrolidine-2-carboxamido)-2-(4-phosphonophenyl)acetamido)-2-hydroxy-3,4-dihydro-2H-benzo[e][1,2]oxaborinine-8-carboxylic acid] | > 128 µg/mL | 4 to 8 µg/mL (≈ 7.15 to 14.3 µM) | 16 to 32 µg/mL (≈ 28.6 to 57.2 µM) | 16 to 32 µg/mL (≈ 28.6 to 57.2 µM) | 16 to 32 µg/mL (≈ 28.6 to 57.2 µM) | > 128 µg/mL | 16 to 32 µg/mL (≈ 28.6 to 57.2 µM)
4 | O=C(O)c1cccc2c1OB(O)[C@@H](NC(=O)C(NS(=O)(=O)C1CC1)c1ccc(P(=O)(O)O)cc1)C2 (stereo partly drawn) [Example 61, (3R)-3-(2-(cyclopropanesulfonamido)-2-(4-phosphonophenyl)acetamido)-2-hydroxy-3,4-dihydro-2H-benzo[e][1,2]oxaborinine-8-carboxylic acid] | > 128 µg/mL | 16 to 32 µg/mL (≈ 30.5 to 61 µM) | 16 to 32 µg/mL (≈ 30.5 to 61 µM) | 16 to 32 µg/mL (≈ 30.5 to 61 µM) | 16 to 32 µg/mL (≈ 30.5 to 61 µM) | > 128 µg/mL | 16 to 32 µg/mL (≈ 30.5 to 61 µM)
5 | O=C(O)c1cccc2c1OB(O)[C@@H](NC(=O)C(NC(=O)c1cnc[nH]c1=O)c1ccc(P(=O)(O)O)cc1)C2 (stereo partly drawn) [Example 176, (3R)-2-hydroxy-3-(2-(6-oxo-1,6-dihydropyrimidine-5-carboxamido)-2-(4-phosphonophenyl)acetamido)-3,4-dihydro-2H-benzo[e][1,2]oxaborinine-8-carboxylic acid] | 32 to 64 µg/mL (≈ 59 to 118 µM) | 1 to 2 µg/mL (≈ 1.84 to 3.69 µM) | 16 to 32 µg/mL (≈ 29.5 to 59 µM) | 16 to 32 µg/mL (≈ 29.5 to 59 µM) | 16 to 32 µg/mL (≈ 29.5 to 59 µM) | > 128 µg/mL | 16 to 32 µg/mL (≈ 29.5 to 59 µM)
6 | NS(=O)(=O)NC(C(=O)N[C@H]1Cc2cccc(C(=O)O)c2OB1O)c1ccc(P(=O)(O)O)cc1 (stereo partly drawn) [Example 58, (3R)-2-hydroxy-3-(2-(4-phosphonophenyl)-2-(sulfamoylamino)acetamido)-3,4-dihydro-2H-benzo[e][1,2]oxaborinine-8-carboxylic acid] | > 128 µg/mL | 16 to 32 µg/mL (≈ 32.1 to 64.1 µM) | 16 to 32 µg/mL (≈ 32.1 to 64.1 µM) | 16 to 32 µg/mL (≈ 32.1 to 64.1 µM) | 16 to 32 µg/mL (≈ 32.1 to 64.1 µM) | > 128 µg/mL | 16 to 32 µg/mL (≈ 32.1 to 64.1 µM)
7 | O=C(O)c1cccc2c1OB(O)[C@@H](NC(=O)[C@H](NC(=O)c1cnc3sccn3c1=O)c1ccc(P(=O)(O)O)cc1)C2 (single isomer, unassigned) [Example 195] | 32 to 64 µg/mL (≈ 53.5 to 107 µM) | < 1 µg/mL | 4 to 8 µg/mL (≈ 6.69 to 13.4 µM) | 4 to 8 µg/mL (≈ 6.69 to 13.4 µM) | 16 to 32 µg/mL (≈ 26.7 to 53.5 µM) | > 128 µg/mL | 4 to 8 µg/mL (≈ 6.69 to 13.4 µM)
8 | O=C1CC[C@H](C(=O)NC(C(=O)N[C@H]2Cc3cccc(C(=O)O)c3OB2O)c2ccc(P(=O)(O)O)cc2)N1 (stereo partly drawn) [Example 53, (3R)-2-hydroxy-3-(2-((R)-5-oxopyrrolidine-2-carboxamido)-2-(4-phosphonophenyl)acetamido)-3,4-dihydro-2H-benzo[e][1,2]oxaborinine-8-carboxylic acid] | > 128 µg/mL | 1 to 2 µg/mL (≈ 1.88 to 3.76 µM) | 16 to 32 µg/mL (≈ 30.1 to 60.2 µM) | 4 to 8 µg/mL (≈ 7.53 to 15.1 µM) | 16 to 32 µg/mL (≈ 30.1 to 60.2 µM) | > 128 µg/mL | 16 to 32 µg/mL (≈ 30.1 to 60.2 µM)
9 | O=C1CC[C@@H](C(=O)NC(C(=O)N[C@H]2Cc3cccc(C(=O)O)c3OB2O)c2ccc(P(=O)(O)O)cc2)N1 (stereo partly drawn) [Example 64, (3R)-2-hydroxy-3-(2-((S)-5-oxopyrrolidine-2-carboxamido)-2-(4-phosphonophenyl)acetamido)-3,4-dihydro-2H-benzo[e][1,2]oxaborinine-8-carboxylic acid] | > 128 µg/mL | 4 to 8 µg/mL (≈ 7.53 to 15.1 µM) | 4 to 8 µg/mL (≈ 7.53 to 15.1 µM) | 4 to 8 µg/mL (≈ 7.53 to 15.1 µM) | 16 to 32 µg/mL (≈ 30.1 to 60.2 µM) | > 128 µg/mL | 16 to 32 µg/mL (≈ 30.1 to 60.2 µM)
